From patent US20240041042A1, “1-(PYRIDYL)-5-AZINYLPYRAZOLE DERIVATIVES, AND THEIR USE FOR CONTROL OF UNDESIRED PLANT GROWTH” (Bayer Aktiengesellschaft, priority 2020, published 2024)
Like-named read-outs stand apart in the source and are kept apart here. Each block holds one molecule with its values, some of them ahead of it.

Experiments:
Assay type in all cases: in vivo
Avena fatua (AVEFA) [1] = assay: Pre-emergence herbicidal action against AVEFA; conditions: 320 g/ha, visual scoring after about 3 weeks vs untreated controls
Outline: (§1)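 Herbicide applied to soil before seedling emergence, at 600 l/ha spray volume with 0.5% additive and rates up to 320 g/ha. Evaluation: visual percentage effect, about 3 weeks later, greenhouse-grown pots compared with untreated ones.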

[2] = system: Echinochloa crus-galli (ECHCG); assay: Pre-emergence herbicidal action against ECHCG; conditions: dosage 320 g/ha
Outline: as §1

Setaria viridis (SETVI) [3] = assay: Pre-emergence herbicidal action against SETVI; conditions: dosage 320 g/ha
Outline: as §1

Avena fatua (AVEFA) [4] = assay: Post-emergence herbicidal action against AVEFA; conditions: visual rating about 3 weeks after treatment
Outline: (§2)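 Greenhouse plants sprayed at the one-leaf stage, 2–3 weeks after sowing, with WP or EC formulations plus 0.5% additive at 600 l/ha water. Activity rated visually after about 3 weeks versus untreated controls (100% = dead, 0% = like control), at 320 g/ha or lower.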

Lolium rigidum (LOLRI) [5] = assay: Pre-emergence herbicidal action against LOLRI; conditions: dosage 320 g/ha
Outline: as §1

[6] = system: Digitaria sanguinalis (DIGSA); assay: Pre-emergence herbicidal action against DIGSA
Outline: as §1

[7] = system: Verconica persica (VERPE); assay: Post-emergence herbicidal action against VERPE; conditions: 320 g/ha, VERPE
Outline: as §2

[8] = system: Alopecurus myosuroides (ALOMY); assay: Post-emergence herbicidal action against ALOMY; conditions: visual rating about 3 weeks after treatment vs untreated controls (100% = plants have died, 0% = like control plants)
Outline: as §2

Setaria viridis (SETVI) [9] = assay: Post-emergence herbicidal action against SETVI
Outline: as §2

Viola tricolor (VIOTR) [10] = assay: Post-emergence herbicidal action against VIOTR; conditions: 320 g/ha
Outline: as §2

Viola tricolor (VIOTR) [11] = assay: Pre-emergence herbicidal action against VIOTR
Outline: as §1

[12] = system: Verconica persica (VERPE); assay: Pre-emergence herbicidal action against VERPE; conditions: dosage 320 g/ha
Outline: as §1

[13] = system: Polygonum convolvulus (POLCO); assay: Pre-emergence herbicidal action against POLCO; conditions: dosage 320 g/ha
Outline: as §1

[14] = system: Abutilon theophrasti (ABUTH); assay: Pre-emergence herbicidal action against ABUTH; conditions: Dosage column 320 g/ha (title prints 3200 g/ha); scored visually after about 3 weeks; 100% = plants have died
Outline: as §1

[15] = system: Matricaria inodora (MATIN); assay: Pre-emergence herbicidal action against MATIN
Outline: as §1

[16] = system: Amaranthus retroflexus (AMARE); assay: Pre-emergence herbicidal action against AMARE; conditions: visual scoring after about 3 weeks vs untreated controls
Outline: as §1

Lolium rigidum (LOLRI) [17] = assay: Post-emergence herbicidal action against LOLRI
Outline: as §2

[18] = system: Alopecurus myosuroides (ALOMY); assay: Pre-emergence herbicidal action against ALOMY; conditions: scored visually after about 3 weeks, 100% = plants have died
Outline: as §1

Oryza sativa (ORYSA) [19] = conditions: crop plant compatibility
Outline: (§3)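 Effects were read visually as % versus untreated controls (0% = no effect, 100% = death) about 3 weeks post-treatment. Application was a post-emergence spray at the one-leaf stage of WP/EC formulations with 0.5% additive at 600 l/ha. Different dosages are denoted a, b and c.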

Zea mays (ZEAMX) [20] = conditions: 20 g/ha, ZEAMX, effect in comparison to untreated controls
Outline: as §3

Oryza sativa (ORYSA) [21] = conditions: crop plant compatibility; for Pre-emergence action against ORYSA in %: 80 g/ha, in comparison to untreated controls
Outline: (§4)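 Scoring: visual, % of untreated control, about 3 weeks after a pre-emergence application to the soil surface. Application used WP or EC formulations diluted in water with 0.5% additive at 600 l/ha; dosage levels are marked by suffixes a, b and c.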

[22] = system: Triticum aestivum (TRZAS); conditions: crop plant compatibility; for Pre-emergence action against TRZAS in %: 80 g/ha, in comparison to untreated controls
Outline: as §4

Zea mays (ZEAMX) [23] = conditions: 20 g/ha; crop plant compatibility, effect vs untreated controls
Outline: as §4

Glycine max (GLXMA) [24] = conditions: crop plant compatibility
Outline: as §4

Brassica napus (BRSNW) = conditions: crop plant compatibility, in comparison to untreated controls
Outline: as §4

[25] = system: Digitaria sanguinalis (DIGSA); assay: Post-emergence herbicidal action against DIGSA; conditions: visual rating about 3 weeks after treatment
Outline: as §2

[26] = system: Matricaria inodora (MATIN); assay: Post-emergence herbicidal action against MATIN; conditions: dosage 80 g/ha
Outline: as §2

[27] = system: Echinochloa crus-galli (ECHCG); assay: Post-emergence herbicidal action against ECHCG; conditions: dosage 80 g/ha
Outline: as §2

[28] = system: Abutilon theophrasti (ABUTH); assay: Post-emergence herbicidal action against ABUTH; conditions: 80 g/ha, visual rating about 3 weeks after treatment vs untreated controls (100% = plants have died, 0% = like control plants)
Outline: as §2

Glycine max (GLXMA) [29] = assay: Post-emergence crop plant compatibility, GLXMA; conditions: post-emergence, 20 g/ha, effect in comparison to untreated controls
Method: Seeds of monocotyledonous and dicotyledonous weeds and crop plants are placed in sandy loam in plastic or organic planting pots, covered with soil and cultivated in a greenhouse under controlled growth conditions. 2 to 3 weeks after sowing, the test plants are treated at the one-leaf stage. The compounds of the invention, formulated in the form of wettable powders (WP) or as emulsion concentrates (EC), are then sprayed onto the green parts of the plants as aqueous suspension or emulsion with addition of 0.5% additive at a water application rate of 600 l/ha (converted). After the test plants have been kept in the greenhouse under optimum growth conditions for about 3 weeks, the activity of the preparations is rated visually in comparison to untreated controls. For example, 100% activity=the plants have died, 0% activity=like control plants.
The observed effects on selected crop plants are reported here in comparison to the untreated controls (values in %). The appendices “a”, “b” and “c” give differentiation by dosage used with otherwise the same crop plants tested.

[30] = system: Amaranthus retroflexus (AMARE); assay: Post-emergence herbicidal action against AMARE; conditions: 80 g/ha, visual rating about 3 weeks after treatment vs untreated controls (100% = plants have died, 0% = like control plants)
Outline: as §2

[31] = system: Triticum aestivum (TRZAS); conditions: crop plant compatibility, 20 g/ha, effect vs untreated controls
Outline: as §3

[32] = 80 g/ha, visual scoring after about 3 weeks vs untreated controls
[33] = 20 g/ha, effect vs untreated controls
[34] = 80 g/ha, effect in comparison to untreated controls

- Post-emergence action against ORYSA in % (Oryza sativa (ORYSA) [19]; [33]): 0%
- Post-emergence action against ORYSA in % (Oryza sativa (ORYSA) [19]; [34]): 10%
- Post-emergence action against ZEAMX in % (crop plant compatibility) (Zea mays (ZEAMX) [20]): 0%
- Pre-emergence action against ORYSA (Oryza sativa (ORYSA) [21]; [33]): 0%
- Pre-emergence action against ORYSA in % (Oryza sativa (ORYSA) [21]): 10%
- Pre-emergence action against TRZAS [22, 33]: 10%
- Pre-emergence action against TRZAS in % [22]: 20%
- Pre-emergence action against ZEAMX (Zea mays (ZEAMX) [23]): 10%
- Pre-emergence action against GLXMA (Glycine max (GLXMA) [24]; [33]): 10%
- Pre-emergence action against GLXMA in % (Glycine max (GLXMA) [24]; pre-emergence, 80 g/ha, in comparison to untreated controls): 10%
- Pre-emergence action against BRSNW in % (Brassica napus (BRSNW); 20 g/ha): 10%
- Pre-emergence action against BRSNW in % (Brassica napus (BRSNW); 80 g/ha): 10%
- Pre-emergence action against BRSNW in % (Brassica napus (BRSNW); 320 g/ha): 20%
Structure (SMILES): C[C@@H](Oc1nn(-c2ccc(F)cn2)c(-c2cncc(F)c2)c1Br)C(=O)O [Example I-13]
- Pre-emergence action against AVEFA in % (Avena fatua (AVEFA) [1]): 90%
- Pre-emergence action against ECHCG in % [2]: 90%
- Pre-emergence action against SETVI in % (Setaria viridis (SETVI) [3]): 90%
- Post-emergence action against AVEFA in % (Avena fatua (AVEFA) [4]; 80 g/ha): 80%
- Post-emergence action against AVEFA in % (Avena fatua (AVEFA) [4]; 320 g/ha): 90%
- Pre-emergence action against LOLRI in % (Lolium rigidum (LOLRI) [5]): 90%
- Pre-emergence action against DIGSA in % [6, 32]: 100%
- Pre-emergence action against DIGSA in % ([6]; dosage 320 g/ha): 100%
- Post-emergence action against VERPE in % [7]: 80%
- Post-emergence action against ALOMY in % ([8]; 80 g/ha): 90%
- Post-emergence action against ALOMY in % ([8]; 320 g/ha): 90%
- Post-emergence action against SETVI in % (Setaria viridis (SETVI) [9]; dosage 80 g/ha): 80%
- Post-emergence action against SETVI in % (Setaria viridis (SETVI) [9]; dosage 320 g/ha): 90%
- Post-emergence action against VIOTR in % (Viola tricolor (VIOTR) [10]): 80%
- Pre-emergence action against VIOTR in % (Viola tricolor (VIOTR) [11]; 320 g/ha, Viola tricolor): 90%
- Pre-emergence action against VERPE in % [12]: 80%
- Pre-emergence action against POLCO in % [13]: 100%
- Pre-emergence action against ABUTH [14]: 90%
- Pre-emergence action against MATIN in % ([15]; dosage 80 g/ha): 80%
- Pre-emergence action against MATIN in % ([15]; dosage 320 g/ha): 80%
- Pre-emergence action against AMARE in % ([16]; 80 g/ha): 90%
- Pre-emergence action against AMARE in % ([16]; 320 g/ha): 100%
- Post-emergence action against LOLRI in % (Lolium rigidum (LOLRI) [17]; dosage 320 g/ha): 90%
- Pre-emergence action against ALOMY ([18]; 80 g/ha): 90%
- Pre-emergence action against ALOMY ([18]; 320 g/ha): 100%
- Post-emergence action against DIGSA in % ([25]; 80 g/ha): 90%
- Post-emergence action against DIGSA in % ([25]; 320 g/ha): 90%

- Post-emergence action against GLXMA in % (Glycine max (GLXMA) [29]): 20%
- Post-emergence action against ORYSA in % (Oryza sativa (ORYSA) [19]; [33]): 0%
- Post-emergence action against ORYSA in % (Oryza sativa (ORYSA) [19]; [34]): 0%
- Post-emergence action against TRZAS in % [31]: 20%
- Post-emergence action against ZEAMX in % (crop plant compatibility) (Zea mays (ZEAMX) [20]): 10%
- Pre-emergence action against ORYSA in % (Oryza sativa (ORYSA) [21]): 20%
- Pre-emergence action against TRZAS in % [22]: 20%
Structure (SMILES): O=C(O)CSc1nn(-c2ccccn2)c(-c2cncc(Cl)c2)c1Br [Example I-126]
- Pre-emergence action against ECHCG in % [2]: 90%
- Pre-emergence action against SETVI in % (Setaria viridis (SETVI) [3]): 90%
- Post-emergence action against MATIN in % [26]: 80%
- Pre-emergence action against LOLRI in % (Lolium rigidum (LOLRI) [5]): 100%
- Pre-emergence action against DIGSA in % [6, 32]: 90%
- Pre-emergence action against DIGSA in % ([6]; dosage 320 g/ha): 100%
- Post-emergence action against ECHCG in % [27]: 80%
- Post-emergence action against SETVI in % (Setaria viridis (SETVI) [9]; dosage 80 g/ha): 80%
- Post-emergence action against ABUTH in % [28]: 80%
- Pre-emergence action against VIOTR in % (Viola tricolor (VIOTR) [11]; 320 g/ha, Viola tricolor): 100%
- Pre-emergence action against VIOTR in % (Viola tricolor (VIOTR) [11]; dosage 80 g/ha): 100%
- Pre-emergence action against VERPE in % [12]: 80%
- Post-emergence action against AMARE in % [30]: 80%
- Pre-emergence action against POLCO in % [13]: 90%
- Pre-emergence action against MATIN in % ([15]; dosage 320 g/ha): 90%
- Pre-emergence action against AMARE in % ([16]; 320 g/ha): 100%
- Post-emergence action against LOLRI in % (Lolium rigidum (LOLRI) [17]; dosage 80 g/ha): 80%
- Pre-emergence action against ALOMY ([18]; 320 g/ha): 80%
